# In patent publication US10821152B2, “Methods, agents and compositions for treatment of inflammatory conditions” (Betanien Hospital, priority 2014, dated 2020):
# Non-standard residues stand in square brackets, D forms with d. Residues, ends and D or L forms follow the SMILES beside them. *: point of attachment. dPhe(4-NHCONH2) = NC(=O)Nc1ccc(C[C@@H](N)C(=O)O)cc1; Dihydroorotyl(S) = O=C1C[C@@H](C(=O)*)NC(=O)N1; dPhe(4-Cl) = N[C@H](Cc1ccc(Cl)cc1)C(=O)O; Phe(4-NH2) = Nc1ccc(C[C@H](N)C(=O)O)cc1; d2Nal = N[C@H](Cc1ccc2ccccc2c1)C(=O)O; Lys(iPr) = CC(C)NCCCC[C@H](N)C(=O)O; d3Pal = N[C@H](Cc1cccnc1)C(=O)O
# Experiments:
# Assay type in all cases: in vivo, human
# [1] = tested on: patient with systemic lupus erythematosus; experiment: Treatment of lupus patient with degarelix
# Description: The patient has a medical history of a multimorbid patient. Systemic lupus erythematosus (SLE) was diagnosed in 1988 based on Raynauds, skin changes, arthralgia, high titre lupus anticoagulant, ANA, SSA, and SSB. Chilblain type changes in hands and feet (FIGS. 6-8). […] The patient suffered cardiac arrest in 2012, coronary stenosis was observed. The patient had kidney failure since 2012, required dialysis, stabilized creatinine around 150, osteoporosis, COPD, and is a smoker.
# By September 2014, we had no treatment options left. Therefore, we decided to offer […] degarelix. GnRH antagonists have shown anti-inflammatory effects and therefore we considered that degarelix, a depot GnRH antagonist, may have a therapeutic effect in lupus. • Sep. 15, 2014, […] received […] loading dose of degarelix, 240 mg sc. Assessment of Response
# Proteinuria decline is linked to improved lupus nephritis outcomes. Korbet et al studied 61 patients in a controlled trial comparing standard therapy with plasmapheresis for severe lupus nephritis. […] They had constant, increasing proteinuria in 2014.
# [2] = tested on: patient with seropositive rheumatoid arthritis; experiment: Degarelix with and without Methotrexate in rheumatoid arthritis; conditions: RA patient
# Method: • person with seropositive rheumatoid arthritis with disease duration of 16 years • Fulfilled ACR 2010 classification criteria for rheumatoid arthritis Experimental Treatment and Assessment of Response • Previously failed 3 biologics (Etanercept, Actemra, and Rituximab). Last tried Rituximab November 2013, but increasing disease activity and blood tests (CRP and ESR) during the months thereafter until start of Degarelix 16 Jun. 2014. Concomitantly used stable Methotrexate 10 mg weekly since 1999. • Started Degarelix 240 mg inductions dose 16 Jun. 2014, with 80 mg every 2 weeks thereafter. • Disease activity reduced and they achieved an ACR60 response by 29 Sep. 2014 under the introduction of Degarelix and stable concomitant Methotrexate and Prednisolone. • 3 Oct. 2014 the patient's pulmonary physician stopped Methotrexate treatment due to pleural thickening, and CT imaging supporting lung fibrosis which was suspected to be due to Methotrexate. The patient had dyspnea which resolved once Methotrexate was stopped. • By 21 Nov. 2014, the patients disease activity score had increased from 5.1 (29 Sep. 14) to 5.7 (21 Nov. 2014), due to the discontinuation of Methotrexate.
# [3] = tested on: patient with seropositive rheumatoid arthritis; experiment: Treatment of RA using Degarelix 40 mg weekly
# Method: • person with seropositive rheumatoid arthritis with disease duration of 22 years. • Fulfilled ACR 2010 classification criteria for rheumatoid arthritis. Experimental Treatment • Had tried most therapies available (for example: Humira, Remicade, Enbrel, Actemra, several disease modifying anti-rheumatic drugs), previously without effect or intolerable side effects. • Offered experimental GnRH antagonist therapy, Degarelix 40 mg every week with 240 mg loading dose at baseline. Assessment of Response • Disease activity score (DAS) reduction from 7.3 to 6.7 at 2 weeks. • A DAS reduction of 0.6 units is defined as a clinical response to treatment (1). • Their ESR has decreased from 62 mm to 38 mm, with a decrease in their CRP from 87 mg/L to 67 mg/L.
smiles,measurement,setting,value
CC(=O)N[C@H](Cc1ccc2ccccc2c1)C(=O)N[C@H](Cc1ccc(Cl)cc1)C(=O)N[C@H](Cc1cccnc1)C(=O)N[C@@H](CO)C(=O)N[C@@H](Cc1ccc(NC(=O)[C@@H]2CC(=O)NC(=O)N2)cc1)C(=O)N[C@H](Cc1ccc(NC(N)=O)cc1)C(=O)N[C@@H](CC(C)C)C(=O)N[C@@H](CCCCNC(C)C)C(=O)N1CCC[C@H]1C(=O)N[C@H](C)C(N)=O [Degarelix] (Ac-[d2Nal][dPhe(4-Cl)][d3Pal]S[Phe(4-NH2)](Dihydroorotyl(S))[dPhe(4-NHCONH2)]L[Lys(iPr)]P[dA]-NH2),ANA (<1),[1]; 07.11.14,26↑
same,FSH (<12),[1]; 07.11.14,<0.1
same,LH (<12),[1]; 07.11.14,<0.3
same,Total urinary protein,[1]; 07.11.14,0.17 g/L
same,ANA (<1),[1]; 14.10.14,28↑
same,FSH (<12),[1]; 14.10.14,<0.1
same,Total urinary protein,[1]; 14.10.14,0.15^2 g/L
same,FSH (<12),[1]; 15.09.14 (day of loading dose),14↑
same,LH (<12),[1]; 15.09.14 (day of loading dose),11
same,Total urinary protein,[1]; 15.09.14 (day of loading dose),0.78↑ g/L
same,ANA (<1),"[1]; 15.09.14 (day of loading dose), out of range",>32↑
same,FSH (<12),[1]; 23.09.14,2
same,LH (<12),[1]; 23.09.14,<0.3
same,Total urinary protein,[1]; 23.09.14,0.75↑ g/L
same,proteinuria,[1]; at 2 months,in remission
same,morning pain,[1]; before treatment,3.5 h
same,proteinuria,[1]; by 1 month,complete remission
same,morning pain,[1]; by 8 weeks,0 h
same,morning pain,[1]; by day 5,1.5 h
same,morning pain,[1]; by day 10,0 h
same,ulcers on hands and feet,[1]; by day 10 of treatment,several ulcers had healed
same,ANA (<1),[1]; column 23.09.14 (25.09.14),31↑
same,disease activity score,"[2]; 21 Nov. 2014, Degarelix after Methotrexate stopped 3 Oct. 2014",5.7
same,disease activity score,"[2]; 29 Sep. 14, Degarelix with Methotrexate",5.1
same,ACR response,"[2]; by 29 Sep. 2014, with stable concomitant Methotrexate and Prednisolone",ACR60
same,Disease activity score (DAS),"[3]; at 2 weeks, 240 mg loading, 40 mg weekly",6.7
same,CRP,[3]; baseline,87 mg/L
same,Disease activity score (DAS),[3]; baseline,7.3
same,ESR,[3]; baseline,62 mm
same,CRP,[3]; on Degarelix 40 mg weekly,67 mg/L
same,ESR,[3]; on Degarelix 40 mg weekly,38 mm
